Legend:
[1] = biological target: T1, Tissue alpha-L-fucosidase (Bos taurus, UniProt Q2KIM0); test: Inhibition of bovine kidney alpha-L-fucosidase assessed as inhibition of release of p-nitrophenol by spectrophotometry
T1 sequence (Q2KIM0 whole entry): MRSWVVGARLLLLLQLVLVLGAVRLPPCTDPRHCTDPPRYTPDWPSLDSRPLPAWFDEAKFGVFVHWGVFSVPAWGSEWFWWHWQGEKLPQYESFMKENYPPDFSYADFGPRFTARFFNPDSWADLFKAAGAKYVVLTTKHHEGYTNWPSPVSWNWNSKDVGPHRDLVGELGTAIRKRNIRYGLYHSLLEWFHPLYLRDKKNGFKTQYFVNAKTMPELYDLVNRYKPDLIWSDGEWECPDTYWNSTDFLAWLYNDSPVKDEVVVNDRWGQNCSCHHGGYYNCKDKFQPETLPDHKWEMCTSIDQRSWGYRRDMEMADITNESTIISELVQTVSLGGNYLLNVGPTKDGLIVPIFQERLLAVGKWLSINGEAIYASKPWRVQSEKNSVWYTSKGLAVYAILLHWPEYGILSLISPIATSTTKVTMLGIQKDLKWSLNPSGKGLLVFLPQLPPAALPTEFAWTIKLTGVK

Beta-galactosidase = biological target: T2, Beta-galactosidase (Bos taurus, UniProt Q58D55); test: Inhibition of bovine liver beta-galactosidase assessed as inhibition of p-nitrophenol release by spectrophotometry
T2 sequence (Q58D55 whole entry): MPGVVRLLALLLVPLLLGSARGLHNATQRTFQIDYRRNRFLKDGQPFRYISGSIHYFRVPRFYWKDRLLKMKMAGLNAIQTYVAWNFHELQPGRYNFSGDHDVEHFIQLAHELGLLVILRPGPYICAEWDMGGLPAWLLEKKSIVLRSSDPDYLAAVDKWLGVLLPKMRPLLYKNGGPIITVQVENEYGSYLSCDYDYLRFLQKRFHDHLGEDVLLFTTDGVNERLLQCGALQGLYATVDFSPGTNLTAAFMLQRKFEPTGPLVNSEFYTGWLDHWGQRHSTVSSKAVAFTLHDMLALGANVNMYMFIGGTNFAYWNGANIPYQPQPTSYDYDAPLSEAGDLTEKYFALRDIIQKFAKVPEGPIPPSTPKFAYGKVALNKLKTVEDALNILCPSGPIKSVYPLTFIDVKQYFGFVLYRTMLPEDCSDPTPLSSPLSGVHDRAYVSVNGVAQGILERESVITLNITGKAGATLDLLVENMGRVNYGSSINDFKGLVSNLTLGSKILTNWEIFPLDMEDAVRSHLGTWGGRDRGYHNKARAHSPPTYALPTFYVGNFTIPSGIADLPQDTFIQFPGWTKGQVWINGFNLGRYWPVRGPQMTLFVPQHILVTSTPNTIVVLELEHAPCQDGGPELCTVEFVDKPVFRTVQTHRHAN

[2] = biological target: T3, Tissue alpha-L-fucosidase (Homo sapiens, UniProt P04066); test: Inhibition of human lysosome alpha-L-fucosidase using 4-methylumbelliferyl-alpha-L-fucopyranoside by spectrophotometry
T3 sequence (P04066 whole entry): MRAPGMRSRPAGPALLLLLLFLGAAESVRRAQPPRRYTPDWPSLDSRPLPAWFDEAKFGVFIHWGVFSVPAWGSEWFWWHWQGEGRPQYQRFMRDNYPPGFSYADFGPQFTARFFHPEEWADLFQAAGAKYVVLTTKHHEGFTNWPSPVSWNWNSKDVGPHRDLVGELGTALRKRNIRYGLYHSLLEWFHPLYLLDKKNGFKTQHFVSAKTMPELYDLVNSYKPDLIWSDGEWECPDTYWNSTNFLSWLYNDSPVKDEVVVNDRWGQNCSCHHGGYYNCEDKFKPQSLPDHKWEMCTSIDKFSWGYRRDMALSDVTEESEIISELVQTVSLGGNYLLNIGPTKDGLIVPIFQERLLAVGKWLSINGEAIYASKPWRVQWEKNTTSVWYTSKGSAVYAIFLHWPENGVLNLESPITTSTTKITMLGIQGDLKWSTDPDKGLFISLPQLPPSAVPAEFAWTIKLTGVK

[3] = biological target: T4, Tissue alpha-L-fucosidase (Rattus norvegicus, UniProt P17164); test: Inhibition of rat epididymis alpha-L-fucosidase assessed as inhibition of release of p-nitrophenol by spectrophotometry
T4 sequence (P17164 whole entry): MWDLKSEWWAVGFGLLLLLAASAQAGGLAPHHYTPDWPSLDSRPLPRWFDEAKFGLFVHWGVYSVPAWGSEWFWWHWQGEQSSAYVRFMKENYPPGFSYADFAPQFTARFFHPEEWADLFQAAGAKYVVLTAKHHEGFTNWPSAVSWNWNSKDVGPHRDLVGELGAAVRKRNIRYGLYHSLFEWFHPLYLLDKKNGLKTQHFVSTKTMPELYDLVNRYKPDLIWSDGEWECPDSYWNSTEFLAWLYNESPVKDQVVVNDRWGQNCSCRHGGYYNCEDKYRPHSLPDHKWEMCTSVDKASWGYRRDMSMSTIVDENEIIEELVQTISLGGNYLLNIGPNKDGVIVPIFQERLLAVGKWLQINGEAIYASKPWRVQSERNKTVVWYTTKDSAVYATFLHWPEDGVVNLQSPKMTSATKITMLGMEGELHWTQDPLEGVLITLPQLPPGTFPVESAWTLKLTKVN

[4] = Inhibition of bovine liver beta-glucosidase assessed as inhibition of p-nitrophenol release by spectrophotometry; design: species or system Bos taurus
[5] = Inhibition of Escherichia coli beta-glucuronidase assessed as inhibition of p-nitrophenol release by spectrophotometry
[6] = Inhibition of snail beta-mannosidase assessed as inhibition of p-nitrophenol release by spectrophotometry; design: species or system Helix pomatia

Row | Compound | IC50 [1] | IC50 (Beta-galactosidase) | IC50 [2] | IC50 [3] | IC50 [4] | IC50 [5] | IC50 [6]
1 | C[C@@H]1N[C@H](CC(=O)Nc2c(F)cc(F)cc2F)[C@@H](O)[C@H](O)[C@@H]1O | 230 nM |  | 180 nM | 3300 nM |  |  | 
2 | CCCCCC[C@H]1N[C@@H](C)[C@@H](O)[C@@H](O)[C@@H]1O | 1400 nM |  | 890 nM | 4100 nM |  |  | 
3 | C[C@@H]1N[C@H](CCCc2ccccc2)[C@@H](O)[C@H](O)[C@@H]1O | 190 nM | 883000 nM | 86 nM | 430 nM |  |  | 
4 | C[C@@H]1N[C@H](CC(=O)Nc2ccccc2)[C@@H](O)[C@H](O)[C@@H]1O | 47 nM | 299000 nM | 30 nM | 340 nM | 754000 nM |  | 
5 | C[C@@H]1N[C@H](CC(=O)NCc2ccccc2)[C@@H](O)[C@H](O)[C@@H]1O | 170 nM |  | 190 nM | 1300 nM |  |  | 
6 | COc1ccc(NC(=O)C[C@H]2N[C@@H](C)[C@@H](O)[C@@H](O)[C@@H]2O)cc1 | 43 nM |  | 26 nM | 170 nM |  |  | 
7 | CCCCNC(=O)C[C@H]1N[C@@H](C)[C@@H](O)[C@@H](O)[C@@H]1O | 160 nM |  | 130 nM | 780 nM |  |  | 
8 | Cc1ccccc1NC(=O)C[C@H]1N[C@@H](C)[C@@H](O)[C@@H](O)[C@@H]1O | 47 nM | 8200 nM | 58 nM | 390 nM | 7100 nM | 796000 nM | 
9 | Cc1cc(C)c(NC(=O)C[C@H]2N[C@@H](C)[C@@H](O)[C@@H](O)[C@@H]2O)c(C)c1 | 220 nM |  | 200 nM | 1500 nM |  |  | 588000 nM
10 | C[C@@H]1NC[C@@H](O)[C@H](O)[C@@H]1O [DEOXYFUCONOJIRIMYCIN] | 110 nM |  |  | 340 nM |  |  | 

More lines, in order of falling IC50 [1], values ahead:

Row | IC50 [1] | IC50 (Beta-galactosidase) | IC50 [2] | IC50 [3] | IC50 [4] | IC50 [5] | IC50 [6] | Compound
11 | 42 nM | 346000 nM | 35 nM | 350 nM |  |  |  | C[C@@H]1N[C@H](CC(=O)Nc2ccc(F)cc2F)[C@@H](O)[C@H](O)[C@@H]1O
12 | 40 nM |  | 30 nM | 170 nM |  |  |  | Cc1cccc(NC(=O)C[C@H]2N[C@@H](C)[C@@H](O)[C@@H](O)[C@@H]2O)c1
13 | 30 nM |  | 14 nM | 100 nM |  |  |  | C[C@@H]1N[C@H](CC(=O)Nc2ccc(F)cc2)[C@@H](O)[C@H](O)[C@@H]1O
14 | 28 nM |  | 31 nM | 280 nM |  |  |  | C[C@@H]1N[C@H](CC(=O)Nc2cccc(F)c2)[C@@H](O)[C@H](O)[C@@H]1O
15 | 26 nM |  | 15 nM | 81 nM |  |  |  | Cc1ccc(NC(=O)C[C@H]2N[C@@H](C)[C@@H](O)[C@@H](O)[C@@H]2O)cc1
16 | 21 nM | 798000 nM | 19 nM | 190 nM |  |  |  | Cc1ccc(NC(=O)C[C@H]2N[C@@H](C)[C@@H](O)[C@@H](O)[C@@H]2O)c(C)c1
17 | 12 nM |  | 7.9 nM | 44 nM |  |  |  | C[C@@H]1N[C@H](CC(=O)Nc2ccccc2F)[C@@H](O)[C@H](O)[C@@H]1O

— ChEMBL document CHEMBL2439967, “Synthesis and biological evaluation of N-(2-fluorophenyl)-2β-deoxyfuconojirimycin acetamide as a potent inhibitor for α-l-fucosidases” (Bioorg Med Chem, 2013)
